Laboratory results published in US20130237610A1, “DYNAMIC BALANCING OF AUTONOMIC NERVOUS SYSTEM THROUGH VITAMIN MK-7” (priority 2010, published 2013).

Key:
rats = test: Chronic toxicity study, ECG of rats; type: in vivo; conditions: rat ECG
Text: In another study on animal model during chronic toxicity study, it was discovered that MK-7 produces significant changes in ECG of rats. This discovery during basic pharmacology studies on MK-7 was investigated for its effect on Cardio Vascular System. It is during this study the investigator discovered the following findings (FIGS. 5 and 6).
The main parameter which was observed during chronic toxicity studies in rat ECG was the prolongation of QT interval.

healthy male volunteers = test: ANS activity (sympathovagal balance) measured by ANSiscope in healthy male volunteers; type: in vivo, human; conditions: for general and systemic examination, Blood Pressure (Supine), pulse: 350 μg per day, 2 months; for percentage of ANS dysfunction / stage of ANS dysfunction: 1 cap per day of 350 μg, end of 2 months
Method: […] ANS activity was measured and printed out in a graph form by the ANSiscope™, manufactured by DyAnsys a US based company. The instrument is US FDA approved patented instrument. This instrument assessed the autonomic function by calculating 500 Heart beats/RR intervals. After assessing this, the instrument will analyze the level of the dysfunction and the degree of autonomic neuropathy. For this reason they have classified autonomic dysfunction in 5 stages, namely Healthy (H), Early (E), Late (L), Advanced (A) and Most Advanced (MA). The percentage calculation values demarcating groups are: −11.5% to 11.5%: healthy group, 13.5% to 20%: early group, 23% to 50.99%: late group, 51% to 100%: advanced group and above falls in Most advance group.
The study parameters assessed were sympathetic and parasympathetic tone, change in blood pressure (orthostatic intolerance, measured at right. brachial artery), pulse (assessed by measuring the pulse at right. radial artery) and physical and general examination. Study was performed on subjects in relaxed supine position without any external stimulation, usually 2 hrs. after breakfast during morning time for 2 consecutive months.
Subjects who have Blood pressure beyond the range of 140/90 (supine) and 100/70 (standing) mm Hg, and Sugar Fasting more than 250 mg % and with any major illness are ruled out of study. All subjects were checked for baseline parameters on 0 day. Vitamin K2-7 (MK-7) in dose of 350 μg was administered on 3rd day after the baseline reading. MK-7 was continued for 2 months. Readings were taken on 3rd day, 15th day, 28st day, 50th day, 56th day and at 62nd day.

ISO injected rats = test: Isoproterenol (ISO) induced cardiac injury model; type: in vivo, rat
Method: During the yet another study conducted to assess the cardioprotective effect of vitamin K2-7, inventors of the current invention observe that the vitamin K2-7 improves the cardiac output parameters. Isoproterenol (ISO) induced cardiac injury model was selected for the study. It was observed that ISO induced cardiac output decrease in all the dose levels i.e. at 90 μg/kg, 450 μg/kg and 900 μg/kg. […] This effects was non-linear and was enhanced in 900 μg/kg dose.
Effect of vitamin K2-7 on the left cardiac work has been evaluated in the same study. It was observed that administration of ISO leads to marked decrease in left cardiac work when measured 48 h after ISO injection in comparison to pre ISO level i.e. control.
In the same study it was also observed that vitamin K2-7 enhances the High Density Lipoprotein (HDL) level in all the dose levels studied i.e. at 90 μg/kg, 450 μg/kg and 900 μg/kg. Isoproterenol (ISO) induced cardiac injury model was selected for the study. […] HDL cholesterol level for the treated group increased in comparison to the ISO controlled group. The observed increase was greater with respect to the dose level increased.

Compound: CC(C)=CCC/C(C)=C/CC/C(C)=C/CC/C(C)=C/CC/C(C)=C/CC/C(C)=C/CC/C(C)=C/CC1=C(C)C(=O)c2ccccc2C1=O [MK-7]
- PR interval (rats): not affected to significant extent
- QTc change (rats): moderate non-significant shortening
- heart rate (rats): no increase
- prolongation of QTc (rats): did not cause any prolongation
- QT interval (rats; 100, 500, 1000 μg/kg): remained unaffected
- QRS interval (rats; 500, 1000 μg/kg): significant shortening
- RR interval (rats; 500, 1000 μg/kg): significant prolongation
- other parameters (blood pressure, pulse, physical and general examination) (healthy male volunteers; 350 μg for 2 months): remained unaffected
- general and systemic examination, Blood Pressure (Supine), pulse (healthy male volunteers; person one): in normal range without any change from base line records
- general and systemic examination, Blood Pressure (Supine), pulse (healthy male volunteers; person two): in normal range without any change from base line records
- parasympathetic activity (healthy male volunteers; 350 μg, after 2 months of therapy): little effect
- sympathetic activity (healthy male volunteers; 350 μg, after 2 months of therapy, initially elevated): marked normalization
- percentage of ANS dysfunction (healthy male volunteers; person one, baseline 61%): 31%
- stage of ANS dysfunction (healthy male volunteers; person one, baseline 'Advance stage'): Early (13.5% to 20%: early group)
- percentage of ANS dysfunction (healthy male volunteers; person two, baseline 25%): 21%
- stage of ANS dysfunction (healthy male volunteers; person two, baseline 'Late stage'): Early (13.5% to 20%: early group)
- ISO induced cardiac output decrease (ISO injected rats; 90 μg/kg and 450 μg/kg): reversed
- ISO induced cardiac output decrease (ISO injected rats; 900 μg/kg): enhanced
- ISO induced left cardiac work decrease, reversal (ISO injected rats; 900 μg/kg vs other treatment groups): higher than other treatment groups
- ISO induced left cardiac work decrease (ISO injected rats; 90, 450 and 900 μg/kg, 48 h after ISO injection, vs ISO control): reversed to a great extent
- HDL cholesterol level (ISO injected rats; 90, 450 and 900 μg/kg, vs ISO control group): increased
- blood sugar (ISO injected rats; within 12 days, 90, 450 and 900 μg/kg): reducing blood sugar
